Assay results reported in PMC8962293, “Synthesis, Structure, and Antiproliferative Action of 2-Pyridyl Urea-Based Cu(II) Complexes” (Biomedicines, 2022).

Assays:
[1] = system: A549 human lung carcinoma cells; test: MTT assay on A549 cells; assay type: cell-based; details: A549, 72 h
Protocol: (§1) A549, NCI-H460, NCI-H1975 lung cancer cells and WI-26 VA4 lung epithelial-like cells were purchased from the ATCC. A549 cells were maintained in F12-K (Corning, NY, USA) supplemented with 10% fetal bovine serum (Fetal Bovine Serum, qualified, Australia; Gibco, Loughborough, UK), penicillin (100 UI mL^−1), streptomycin (100 µg mL^−1), and GlutaMax (1.9 mM, Gibco, UK). NCI-H460 and NCI-H1975 cells were maintained in RPMI-1640 (ATCC modification) media (Gibco, Loughborough, UK) supplemented with 10% fetal bovine serum (Fetal Bovine Serum, qualified, Australia; Gibco, Loughborough, UK), penicillin (100 UI mL^−1), streptomycin (100 µg mL^−1), and GlutaMax (2 mM, Gibco, UK). WI-26 VA4 cells were maintained in Advanced MEM (Gibco, Loughborough, UK) supplemented with 5% fetal bovine serum (Fetal Bovine Serum, qualified, Australia, Gibco, UK), penicillin (100 UI mL^−1), streptomycin (100 µg mL^−1), and GlutaMax (1.87 mM, Gibco, Loughborough, UK). All cells line cultivation under a humidified atmosphere of 95% air/5% CO2 at 37 °C. Subconfluent monolayers, in the log growth phase, were harvested by a brief treatment with TrypLE Express solution (Gibco, Loughborough, UK) in phosphate buffered saline (PBS, Capricorn Scientific, Germany) and washed three times in serum-free PBS. The number of viable cells was determined by trypan blue exclusion.
(§2) The effects of the synthesized compounds on cell viability were determined using the MTT colorimetric test. All examined cells were diluted with the growth medium to 3.5 × 10^4 cells per mL and the aliquots (7 × 10^3 cells per 200 μL) were placed in individual wells in 96-well plates (Eppendorf, Hamburg, Germany) and incubated for 24 h. The next day, the cells were treated with synthesized compounds separately in concentration 10 and 100 μM (or 200.0 μM concentration and diluted at various concentrations for determination of IC50) and incubated for 72 h at 37 °C in 5% CO2 atmosphere. Each compound was tested in triplicate. After incubation, the cells were treated with 40 μL MTT solution (3-(4,5-dimethylthiazol-2-yl)-2,5-diphenyltetrazolium bromide, 5 mg mL^−1 in PBS) and incubated for 4 h. After additional 4-h incubation, the medium with MTT was removed and DMSO (150 μL) was added to dissolve the formazan crystals. The plates were shaken for 10 min. The optical density of each well was determined at 560 nm using GloMax Multi+ (Promega, Madison, WI, USA) microplate reader. Each of the tested compounds was evaluated for cytotoxicity in three separate experiments. All stock solutions for biological evaluations were prepared via dissolving synthesized compounds in DMSO.

[2] = system: NCI-H460 non-small cell lung carcinoma cells; test: MTT assay on NCI-H460 cells; assay type: cell-based, human; details: NCI-H460, 72 h
Protocol: as §1, §2

[3] = system: EGFR-mutant NCI-H1975 non-small cell lung carcinoma cells; test: MTT assay on NCI-H1975 cells; assay type: cell-based, human
Protocol: as §1, §2

[4] = system: non-cancerous lung fibroblast WI-26 VA4; test: MTT assay on WI-26 VA4 cells (non-specific cytotoxicity); assay type: cell-based, human; details: WI-26 VA4, 72 h
Protocol: as §1, §2

NCI-H1975 cells [5] = test: Cell cycle analysis by flow cytometry; assay type: cell-based, human; details: NCI-H1975, 10, 20, and 35 μM, 48 h
Protocol: For the cell cycle analysis, the cells (1 × 10^6 per well) were placed at 6-well culture plates (Eppendorf, Germany) and allowed to grow overnight. After the medium was replaced with solution tested compounds (10, 20, or 35 μM). The exposed cells were placed at 37 °C in a 5% CO2 incubator for 48 h. After the completion of incubations, cells were harvested by trypsinization, washed with PBS, centrifuged, fixed with 70% ethanol and incubated for 7 h at –20 °C. An aliquot of the pellet (200 µL) was washed with PBS, stained with 200 µL of the Guava Cell Cycle Reagent (Merck, Kenilworth, NJ, USA), and incubated for 30 min at room temperature in the dark. The cell cycle distribution was analyzed by flow cytometry on a CytoFlex (Beckham Coulter, Brea, CA, USA) and CytExpert 2.1 program.

NCI-H1975 cells [6] = test: Annexin V-FITC/PI double staining apoptosis assay; assay type: cell-based, human; details: NCI-H1975, 50 μM, 48-h incubation
Protocol: For the detection of apoptosis, the cells were placed at 6-well culture plates (Eppendorf, Germany) and allowed to grow overnight. After the cells reached subconfluency, the medium was replaced with tested compounds (25 or 50 μM). The exposed cells were placed at 37 °C in a 5% CO2 incubator for 24 or 48 h. The cultured cells were washed twice with PBS and resuspended in 1× binding buffer (AnnexinV-FITC kit, Invitrogen, Waltham, MA, USA) at a concentration 1 × 10^6 mL^−1. Annexin FITC (5 μL) and propidium iodide (PI, 2 μL) were added to 100 μL of the cell suspension and incubated for 15 min at room temperature (25 °C) in the dark. After incubation, 400 μL of 1× binding buffer was added to each tube and the stained cells were analyzed within 1 h using CytoFlex (Beckman Coulter, Brea, CA, USA) and CytExpert 2.1 program. Since the AnnexinV-FITC staining precedes the loss of membrane integrity that accompanies the later stage identified by PI, Annexin FITC positive, PI negative indicates early apoptosis, while the viable cells are Annexin V FITC negative, PI negative. The cells that are in late apoptosis or dead are both Annexin V FITC and PI positive.

[7] = Molar conductivity in DMSO solution; assay type: physicochemical; details: DMSO solutions, 25 °C
Protocol: The preparation and characterization of starting pyridine-N-oxides as well as U1–12 are described previously. CuCl2, other reactants, and solvents were obtained from commercial sources. High-resolution mass-spectra (HRMS) were measured on Bruker Maxis HRMS-ESI-qTOF (Electrospray Ionization, ESI; Bruker, Billerica, MA, USA); a MeOH was used as the solvent. The instrument was operated at positive ion mode using m/z range of 50–3000. The capillary voltage of the ion source was set at –4500 V (ESI^+) and the capillary exit at +(70–150) V. The nebulizer gas pressure was 0.4 bar and drying gas flow was 4.0 L/min. The most intensive peak in the isotopic pattern is reported. Infrared spectra (4000–400 cm^–1) were recorded on a Shimadzu FTIR 8400S (Shimadzu, Kyoto, Japan) instrument in KBr pellets. The C, H, and N elemental analyses were carried out on a Leco TruSpec Micro CHNS analyzer (LECO, St. Joseph, MI, USA). TGA was performed on a ca. 2 mg samples of Cu(II) complexes by using a Netzsch TG 209 F1 Libra thermal analyzer (Netzsch, Selb, Germany). The samples were dried under a vacuum at 50 °C before heating from 40 to 450 °C at a heating rate of 10 K min^–1. A flow rate of 10 mL min^–1 of dry argon was used to purge the samples. Molar conductivity was measured with an Elico digital conductivity bridge model CM-88, using a freshly prepared DMSO solution of the complexes.

Structure (SMILES): CN(C)C(=O)Nc1cc([N+](=O)[O-])ccn1.CN(C)C(=O)Nc1cc([N+](=O)[O-])ccn1.[Cl-].[Cl-].[Cu+2] [[Cu(U3)2Cl2]]
- IC50 [1]: 61.4 ± 6.52 µM
- IC50 [2]: 77.5 ± 6.4 µM
- IC50 ([3]; NCI-H1975, 72 h, MTT): 39.6 ± 4.5 µM
- selectivity over the healthy human cells WI-26 VA4 ([3]; NCI-H1975 vs WI-26 VA4): the most selective
- IC50 [4]: 81.6 ± 10.1 µM
- cells trapped in the G2 phase (NCI-H1975 cells [5]): profound increase
- number of cells in the G1 phase (NCI-H1975 cells [5]): remarkable drop
- percentage of dead cells (NCI-H1975 cells [6]; control 0.28%): 2.87%
- percent of Annexin V FITC-positive early apoptotic cells (NCI-H1975 cells [6]; control 5.25%): 16.30%
- late apoptotic fraction in cell population (NCI-H1975 cells [6]; control 12.02%): 22.38%
- Molar conductivity [7]: 24.1 Ω^−1·cm^2·mol^−1
